{"source": "PubChem BioAssay AID2060623", "about": "(Molecular Pharmacology Branch, DTP, NCI, 2025);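 further: spheroids exposed to compounds for seven days before readout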;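 on viability, T/C: percent of DMSO vehicle control luminescence as 100% viability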", "tested_on": "227483-062-R1-J1-PDC complex spheroids with HUVEC/MSC, viability", "experiment": "Anticancer human tumor 227483-062-R1-J1-PDC patient-derived pancreatic carcinoma cell line growth inhibition [CLK]", "settings": "for IC50: curve of first compound; for viability, T/C: stronger effect = lower value", "in_short": "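Multi-cell-type spheroids combined patient-derived tumor cells with HUVEC endothelial cells and human mesenchymal stem cells. Paired agents were dosed in half-log steps down from about clinical Cmax, or from 10 microM where Cmax was unknown.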", "data": [{"smiles": "NC(=O)C(=Cn1cnc(-c2cc(C(F)(F)F)cc(C(F)(F)F)c2)n1)c1cncnc1", "note": "+ CN1CCN(c2cc(C(=O)Nc3cc4cc(-c5cnn(C)c5)ccc4cn3)ccn2)CC1", "values": [{"measurement": "IC50", "setting": "second compound 0.0316 µM", "value": 387, "unit": "nM"}, {"measurement": "IC50", "setting": "second compound 0.1 µM", "value": 62.1, "unit": "nM"}, {"measurement": "IC50", "setting": "second compound 0.316 µM", "value": "< 9.49", "unit": "nM"}, {"measurement": "IC50", "setting": "second compound 1 µM", "value": "< 9.49", "unit": "nM"}, {"measurement": "IC50", "setting": "second compound 3.16 µM", "value": "< 9.49", "unit": "nM"}, {"measurement": "IC50", "setting": "second compound 10 µM", "value": "< 9.49", "unit": "nM"}, {"measurement": "viability, T/C", "setting": "second compound 0.0316 µM, first compound 0.00949 µM", "value": 83.4, "unit": "%"}, {"measurement": "viability, T/C", "setting": "second compound 0.0316 µM, first compound 0.03 µM", "value": 105, "unit": "%"}, {"measurement": "viability, T/C", "setting": "second compound 0.0316 µM, first compound 0.0949 µM", "value": 78.6, "unit": "%"}, {"measurement": "viability, T/C", "setting": "second compound 0.0316 µM, first compound 0.3 µM", "value": 60.6, "unit": "%"}, {"measurement": "viability, T/C", "setting": "second compound 0.0316 µM, first compound 0.949 µM", "value": 18.8, "unit": "%"}, {"measurement": "viability, T/C", "setting": "second compound 0.0316 µM, first compound 3 µM", "value": 5.44, "unit": "%"}, {"measurement": "viability, T/C", "setting": "second compound 0.1 µM, first compound 0.00949 µM", "value": 69.7, "unit": "%"}, {"measurement": "viability, T/C", "setting": "second compound 0.1 µM, first compound 0.03 µM", "value": 76.6, "unit": "%"}, {"measurement": "viability, T/C", "setting": "second compound 0.1 µM, first compound 0.0949 µM", "value": 35.9, "unit": "%"}, {"measurement": "viability, T/C", "setting": "second compound 0.1 µM, first compound 0.3 µM", "value": 13.9, "unit": "%"}, {"measurement": "viability, T/C", "setting": "second compound 0.1 µM, first compound 0.949 µM", "value": 3.19, "unit": "%"}, {"measurement": "viability, T/C", "setting": "second compound 0.1 µM, first compound 3 µM", "value": 1.66, "unit": "%"}, {"measurement": "viability, T/C", "setting": "second compound 0.316 µM, first compound 0.00949 µM", "value": 3.14, "unit": "%"}, {"measurement": "viability, T/C", "setting": "second compound 0.316 µM, first compound 0.03 µM", "value": 3.15, "unit": "%"}, {"measurement": "viability, T/C", "setting": "second compound 0.316 µM, first compound 0.0949 µM", "value": 1.63, "unit": "%"}, {"measurement": "viability, T/C", "setting": "second compound 0.316 µM, first compound 0.3 µM", "value": 1.68, "unit": "%"}, {"measurement": "viability, T/C", "setting": "second compound 0.316 µM, first compound 0.949 µM", "value": 1.4, "unit": "%"}, {"measurement": "viability, T/C", "setting": "second compound 0.316 µM, first compound 3 µM", "value": 1.39, "unit": "%"}, {"measurement": "viability, T/C", "setting": "second compound 1 µM, first compound 0.00949 µM", "value": 1.5, "unit": "%"}, {"measurement": "viability, T/C", "setting": "second compound 1 µM, first compound 0.03 µM", "value": 1.97, "unit": "%"}, {"measurement": "viability, T/C", "setting": "second compound 1 µM, first compound 0.0949 µM", "value": 1.83, "unit": "%"}, {"measurement": "viability, T/C", "setting": "second compound 1 µM, first compound 0.3 µM", "value": 2.32, "unit": "%"}, {"measurement": "viability, T/C", "setting": "second compound 1 µM, first compound 0.949 µM", "value": 2.43, "unit": "%"}, {"measurement": "viability, T/C", "setting": "second compound 1 µM, first compound 3 µM", "value": 2.17, "unit": "%"}, {"measurement": "viability, T/C", "setting": "second compound 3.16 µM, first compound 0.00949 µM", "value": 1.89, "unit": "%"}, {"measurement": "viability, T/C", "setting": "second compound 3.16 µM, first compound 0.03 µM", "value": 3.42, "unit": "%"}, {"measurement": "viability, T/C", "setting": "second compound 3.16 µM, first compound 0.0949 µM", "value": 3.73, "unit": "%"}, {"measurement": "viability, T/C", "setting": "second compound 3.16 µM, first compound 0.3 µM", "value": 5.05, "unit": "%"}, {"measurement": "viability, T/C", "setting": "second compound 3.16 µM, first compound 0.949 µM", "value": 3.43, "unit": "%"}, {"measurement": "viability, T/C", "setting": "second compound 3.16 µM, first compound 3 µM", "value": 3.12, "unit": "%"}, {"measurement": "viability, T/C", "setting": "second compound 10 µM, first compound 0.00949 µM", "value": 1.57, "unit": "%"}, {"measurement": "viability, T/C", "setting": "second compound 10 µM, first compound 0.03 µM", "value": 2.14, "unit": "%"}, {"measurement": "viability, T/C", "setting": "second compound 10 µM, first compound 0.0949 µM", "value": 2.32, "unit": "%"}, {"measurement": "viability, T/C", "setting": "second compound 10 µM, first compound 0.3 µM", "value": 2.15, "unit": "%"}, {"measurement": "viability, T/C", "setting": "second compound 10 µM, first compound 0.949 µM", "value": 1.97, "unit": "%"}, {"measurement": "viability, T/C", "setting": "second compound 10 µM, first compound 3 µM", "value": 1.44, "unit": "%"}]}, {"smiles": "Nc1ccccc1NC(=O)c1ccc(CNC(=O)OCc2cccnc2)cc1", "note": "+ CN1CCN(c2cc(C(=O)Nc3cc4cc(-c5cnn(C)c5)ccc4cn3)ccn2)CC1", "values": [{"measurement": "IC50", "setting": "second compound 0.0316 µM", "value": "> 10000", "unit": "nM"}, {"measurement": "IC50", "setting": "second compound 0.1 µM", "value": 1040, "unit": "nM"}, {"measurement": "IC50", "setting": "second compound 0.316 µM", "value": "< 31.6", "unit": "nM"}, {"measurement": "IC50", "setting": "second compound 1 µM", "value": "< 31.6", "unit": "nM"}, {"measurement": "IC50", "setting": "second compound 3.16 µM", "value": "< 31.6", "unit": "nM"}, {"measurement": "IC50", "setting": "second compound 10 µM", "value": "< 31.6", "unit": "nM"}, {"measurement": "viability, T/C", "setting": "second compound 0.0316 µM, first compound 0.0316 µM", "value": 106, "unit": "%"}, {"measurement": "viability, T/C", "setting": "second compound 0.0316 µM, first compound 0.1 µM", "value": 108, "unit": "%"}, {"measurement": "viability, T/C", "setting": "second compound 0.0316 µM, first compound 0.316 µM", "value": 107, "unit": "%"}, {"measurement": "viability, T/C", "setting": "second compound 0.0316 µM, first compound 1 µM", "value": 126, "unit": "%"}, {"measurement": "viability, T/C", "setting": "second compound 0.0316 µM, first compound 3.16 µM", "value": 131, "unit": "%"}, {"measurement": "viability, T/C", "setting": "second compound 0.0316 µM, first compound 10 µM", "value": 51.6, "unit": "%"}, {"measurement": "viability, T/C", "setting": "second compound 0.1 µM, first compound 0.0316 µM", "value": 63.7, "unit": "%"}, {"measurement": "viability, T/C", "setting": "second compound 0.1 µM, first compound 0.1 µM", "value": 76, "unit": "%"}, {"measurement": "viability, T/C", "setting": "second compound 0.1 µM, first compound 0.316 µM", "value": 57.4, "unit": "%"}, {"measurement": "viability, T/C", "setting": "second compound 0.1 µM, first compound 1 µM", "value": 48.6, "unit": "%"}, {"measurement": "viability, T/C", "setting": "second compound 0.1 µM, first compound 3.16 µM", "value": 36.9, "unit": "%"}, {"measurement": "viability, T/C", "setting": "second compound 0.1 µM, first compound 10 µM", "value": 17.1, "unit": "%"}, {"measurement": "viability, T/C", "setting": "second compound 0.316 µM, first compound 0.0316 µM", "value": 4.44, "unit": "%"}, {"measurement": "viability, T/C", "setting": "second compound 0.316 µM, first compound 0.1 µM", "value": 6.25, "unit": "%"}, {"measurement": "viability, T/C", "setting": "second compound 0.316 µM, first compound 0.316 µM", "value": 7.44, "unit": "%"}, {"measurement": "viability, T/C", "setting": "second compound 0.316 µM, first compound 1 µM", "value": 3.95, "unit": "%"}, {"measurement": "viability, T/C", "setting": "second compound 0.316 µM, first compound 3.16 µM", "value": 1.6, "unit": "%"}, {"measurement": "viability, T/C", "setting": "second compound 0.316 µM, first compound 10 µM", "value": 1.34, "unit": "%"}, {"measurement": "viability, T/C", "setting": "second compound 1 µM, first compound 0.0316 µM", "value": 2.7, "unit": "%"}, {"measurement": "viability, T/C", "setting": "second compound 1 µM, first compound 0.1 µM", "value": 1.53, "unit": "%"}, {"measurement": "viability, T/C", "setting": "second compound 1 µM, first compound 0.316 µM", "value": 1.99, "unit": "%"}, {"measurement": "viability, T/C", "setting": "second compound 1 µM, first compound 1 µM", "value": 2.47, "unit": "%"}, {"measurement": "viability, T/C", "setting": "second compound 1 µM, first compound 3.16 µM", "value": 1.45, "unit": "%"}, {"measurement": "viability, T/C", "setting": "second compound 1 µM, first compound 10 µM", "value": 1.58, "unit": "%"}, {"measurement": "viability, T/C", "setting": "second compound 3.16 µM, first compound 0.0316 µM", "value": 3.26, "unit": "%"}, {"measurement": "viability, T/C", "setting": "second compound 3.16 µM, first compound 0.1 µM", "value": 4.66, "unit": "%"}, {"measurement": "viability, T/C", "setting": "second compound 3.16 µM, first compound 0.316 µM", "value": 2.26, "unit": "%"}, {"measurement": "viability, T/C", "setting": "second compound 3.16 µM, first compound 1 µM", "value": 2.68, "unit": "%"}, {"measurement": "viability, T/C", "setting": "second compound 3.16 µM, first compound 3.16 µM", "value": 2.71, "unit": "%"}, {"measurement": "viability, T/C", "setting": "second compound 3.16 µM, first compound 10 µM", "value": 2.41, "unit": "%"}, {"measurement": "viability, T/C", "setting": "second compound 10 µM, first compound 0.0316 µM", "value": 3.24, "unit": "%"}, {"measurement": "viability, T/C", "setting": "second compound 10 µM, first compound 0.1 µM", "value": 1.86, "unit": "%"}, {"measurement": "viability, T/C", "setting": "second compound 10 µM, first compound 0.316 µM", "value": 2.94, "unit": "%"}, {"measurement": "viability, T/C", "setting": "second compound 10 µM, first compound 1 µM", "value": 2.31, "unit": "%"}, {"measurement": "viability, T/C", "setting": "second compound 10 µM, first compound 3.16 µM", "value": 2.71, "unit": "%"}, {"measurement": "viability, T/C", "setting": "second compound 10 µM, first compound 10 µM", "value": 1.85, "unit": "%"}]}]}
